Assay results from PMC2954222, “The structure of Haemophilus influenzae prephenate dehydrogenase suggests unique features of bifunctional TyrA enzymes” (Acta Crystallographica Section F: Structural Biology and …, 2010).

Biological target: T1, HinfPDH (prephenate dehydrogenase component of chorismate mutase/prephenate dehydrogenase TyrA) (Haemophilus influenzae, UniProt P43902)
T1 construct: prephenate dehydrogenase domain, residues 81-377 (Met1-Phe80 excluded); N-terminal His tag removed by TEV, leaving Gly; selenomethionine-labelled; expressed in E. coli; dimer
T1 sequence (P43902 81-377): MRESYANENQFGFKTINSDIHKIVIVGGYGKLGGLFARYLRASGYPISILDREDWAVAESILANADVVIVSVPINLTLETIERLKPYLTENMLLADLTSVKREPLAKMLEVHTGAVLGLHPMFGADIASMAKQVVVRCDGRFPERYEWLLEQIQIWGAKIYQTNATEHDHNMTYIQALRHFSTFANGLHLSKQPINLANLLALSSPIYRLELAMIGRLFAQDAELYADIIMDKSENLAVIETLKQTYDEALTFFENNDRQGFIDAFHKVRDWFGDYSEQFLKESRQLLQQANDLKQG
Assay: X-ray crystal structure, […] A
Assay type: binding
Conditions: ligand acquired during expression in E. coli, not added

| SMILES | X-ray crystal structure, 2.0 A (ternary complex with NAD+, active site, competitive mode only inferred) | X-ray crystal structure, 2.0 A (ternary complex with tyrosine, cofactor site) |
| --- | --- | --- |
| N[C@@H](Cc1ccc(O)cc1)C(=O)O [tyrosine] | could be unambiguously assigned to a tyrosine molecule and an NAD^+ cofactor | – |
| NC(=O)c1ccc[n+]([C@@H]2O[C@H](COP(=O)(O)OP(=O)(O)OC[C@H]3O[C@@H](n4cnc5c(N)ncnc54)[C@H](O)[C@@H]3O)[C@@H](O)[C@H]2O)c1 [NAD^+] | – | One tyrosine and one NAD^+ are bound in each monomer |
